This passage reports DC50 results from patent US20240158418A1 (C4 Therapeutics, Inc., priority 2021, published 2024).

Molecules are shown by their SMILES. Some results are limits rather than exact numbers.

T1 sequence (P00533 25-1210 T790M/L858R): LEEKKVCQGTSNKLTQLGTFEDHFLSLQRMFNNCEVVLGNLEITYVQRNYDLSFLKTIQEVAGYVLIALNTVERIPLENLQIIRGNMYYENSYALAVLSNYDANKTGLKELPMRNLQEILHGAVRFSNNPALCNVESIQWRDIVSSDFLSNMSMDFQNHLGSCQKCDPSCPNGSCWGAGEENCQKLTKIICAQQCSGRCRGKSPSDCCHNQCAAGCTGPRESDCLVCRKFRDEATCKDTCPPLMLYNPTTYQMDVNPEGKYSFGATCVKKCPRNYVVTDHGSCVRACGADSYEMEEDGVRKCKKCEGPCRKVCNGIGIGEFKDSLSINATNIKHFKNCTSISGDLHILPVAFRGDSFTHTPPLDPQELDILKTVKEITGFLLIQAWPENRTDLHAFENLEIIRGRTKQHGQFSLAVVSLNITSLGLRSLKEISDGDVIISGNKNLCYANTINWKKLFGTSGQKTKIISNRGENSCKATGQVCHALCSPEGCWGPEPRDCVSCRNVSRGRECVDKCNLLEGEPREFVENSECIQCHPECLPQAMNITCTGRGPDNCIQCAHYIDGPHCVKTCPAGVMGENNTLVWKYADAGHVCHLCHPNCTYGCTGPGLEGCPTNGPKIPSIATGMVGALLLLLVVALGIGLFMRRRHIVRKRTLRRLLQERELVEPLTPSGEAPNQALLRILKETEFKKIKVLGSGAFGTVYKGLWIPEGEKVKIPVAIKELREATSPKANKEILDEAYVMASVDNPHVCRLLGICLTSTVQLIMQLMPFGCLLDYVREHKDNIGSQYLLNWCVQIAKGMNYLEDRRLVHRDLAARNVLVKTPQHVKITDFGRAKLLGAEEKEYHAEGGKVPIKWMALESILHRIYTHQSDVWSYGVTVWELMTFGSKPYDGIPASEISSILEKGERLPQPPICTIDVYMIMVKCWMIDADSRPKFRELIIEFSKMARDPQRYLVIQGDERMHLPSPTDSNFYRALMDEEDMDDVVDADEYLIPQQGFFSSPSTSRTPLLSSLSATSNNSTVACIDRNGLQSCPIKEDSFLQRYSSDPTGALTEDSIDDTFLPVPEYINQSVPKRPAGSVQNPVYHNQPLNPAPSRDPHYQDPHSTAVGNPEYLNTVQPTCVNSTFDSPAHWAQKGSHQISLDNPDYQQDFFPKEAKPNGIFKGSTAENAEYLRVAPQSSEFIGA

The first test addresses T1, EGFR L858R-T790M (Homo sapiens, UniProt P00533, L858R/T790M).
T1 construct: NCI-H1975 (harboring EGFR heterozygous L858R-T790M mutations); host or cells: NCI-H1975
The experiment in a line: EGFR degradation, Total EGFR (L858R-specific) HTRF, NCI-H1975. The note with it: Table 9A; NCI-H1975 cells, 6 hours, Total EGFR HTRF; read-out: H1975 EGFR DC50. The test is classed as cell-based. From the text:
NCI-H1975 (harboring EGFR heterozygous L858R-T790M mutations) and NCI-H3255 (harboring EGFR heterozygous L858R mutation) were purchased from ATCC and NCI, respectively. NCI-H1975+CS (harboring EGFR heterozygous L858R-T790M-C797S mutations) was generated using CRISPR technology to introduce the additional C797S mutation by Horizon Discovery. A431 (harboring EGFR wildtype) was purchased from ATCC. RPMI 1640 no-phenol red medium and fetal bovine serum (FBS) were purchased from Gibco (Grand Island, NY, USA). Cell culture flasks and 384-well microplates were acquired from VWR (Radnor, PA, USA). Phosphorylated (pY1068) EGFR and Total EGFR (using L858R-specific detection antibody and pan-EGFR antibody for EGFR mutant cell lines and EGFR wild-type cell lines, respectively) HTRF assay kits were purchased from Cisbio (Bedford, MA, USA).
Degradation of EGFR protein containing L858R mutation or wild-type was determined based on quantification of FRET signal using a Total EGFR (L858R-specific or pan-EGFR detecting) HTRF assay kit. Phospho-EGFR (pEGFR) inhibition was determined based on quantification of FRET signal using a pY1068 EGFR HTRF assay kit. In separate assay plates, test compounds were added to the 384-well plate from a top concentration of 10 μM with 11 points, half log titration in duplicates. For each assay, 12.5 uL of cells suspended in assay media (RPMI 1640 no-phenol red medium+10% FBS) at cell densities indicated for each cell line in Table 8 below were dispensed using a multi-channel pipette to 384-well low volume white HTRF microplates containing a duplicate concentration range of test compounds and DMSO controls. The plates were kept at 37° C. with 5% CO2 for 6 hours and then incubated with either phospho EGFR or Total EGFR HTRF detection antibodies according to the cell line and EGFR mutant being assayed. Cells treated in the absence of the test compound were the negative control. Positive control was set by wells containing all reagents but no cells. FRET signal was acquired on EnVision™ Multilabel Reader (PerkinElmer, Santa Clara, CA, USA). Compound concentration that achieves 50% degradation and inhibition was reported as DC50 and IC50, respectively.
For the compound `O=C1CCC(Nc2ccc(C3CCN(CC(=O)N4CCN(c5ccc(-c6ccc7cn(C(C(=O)Nc8nccs8)c8ncn9c8CCC9)nc7c6F)cn5)CC4)CC3)cc2)C(=O)N1` (racemic) [Compound 63, (2RS)-2-(6,7-Dihydro-5H-pyrrolo[1,2-c]imidazol-1-yl)-2-[7-fluoro-6-[6-[4-[2-[4-[4-[[(3RS)-2,6-dioxo-3-piperidyl]amino]phenyl]-1-piperidyl]acetyl]piperazin-1-yl]-3-pyridyl]indazol-2-yl]-N-thiazol-2-yl-acetamide], the DC50 lay within 50 to 150 nM.

For `O=C1CCC(Nc2ccc(C3CCN(CC(=O)N4CCN(c5ccc(-c6cc(F)c7c(c6)C(=O)N(C(C(=O)Nc6nccs6)c6ncn8c6CCC8)C7)cc5)CC4)CC3)cc2F)C(=O)N1` (centres unmarked) [Compound 13, 2-(6,7-dihydro-5H-pyrrolo[1,2-c]imidazol-1-yl)-2-[6-[4-[4-[2-[4-[4-[(2,6-dioxo-3-piperidyl)amino]-3-fluoro-phenyl]-1-piperidyl]acetyl]piperazin-1-yl]phenyl]-4-fluoro-1-oxo-isoindolin-2-yl]-N-thiazol-2-yl-acetamide], the DC50 was 50 to 150 nM.

Take `O=C1CCC(Nc2ccc(C3CCN(CC(=O)N4CCC(Oc5ccc(-c6cc(F)c7c(c6)C(=O)N(C(C(=O)Nc6nccs6)c6ncn8c6CCC8)C7)cc5)CC4)CC3)cc2)C(=O)N1` (centres unmarked) [Compound 31, 2-(6,7-dihydro-5H-pyrrolo[1,2-c]imidazol-1-yl)-2-[6-[4-[[1-[2-[4-[4-[(2,6-dioxo-3-piperidyl)amino]phenyl]-1-piperidyl]acetyl]-4-piperidyl]oxy]phenyl]-4-fluoro-1-oxo-isoindolin-2-yl]-N-thiazol-2-yl-acetamide]: the DC50 was under 50 nM.

Staying with this test, now noted: Table 9B; NCI-H1975 cells, 6 hours, Total EGFR HTRF; read-out: H1975 EGFR DC50.
Consider `O=C1CCC(Nc2cc(F)c(N3CCC(O)(CC(=O)N4CC5(C4)CN(c4ccc(-c6cc(F)c7c(c6)C(=O)N(C(C(=O)Nc6nccs6)c6ncn8c6CCC8)C7)cc4)C5)CC3)cc2F)C(=O)N1` (centres unmarked) [Compound 135, 2-(6,7-dihydro-5H-pyrrolo[1,2-c]imidazol-1-yl)-2-[6-[4-[2-[2-[1-[4-[(2,6-dioxo-3-piperidyl)amino]-2,5-difluoro-phenyl]-4-hydroxy-4-piperidyl]acetyl]-2,6-diazaspiro[3.3]heptan-6-yl]phenyl]-4-fluoro-1-oxo-isoindolin-2-yl]-N-thiazol-2-yl-acetamide], for which the 50% degradation concentration (DC50) is under 50 nM. The same measure, in the same setting: in the case of `Cn1nc(N2CCC(=O)NC2=O)c2cc(F)c(C3CCN(CC(=O)N4CC5(C4)CN(c4ccc(-c6cc(F)c7c(c6)C(=O)N(C(C(=O)Nc6nccs6)c6ncn8c6CCC8)C7)cc4)C5)CC3(F)F)cc21` (single isomer, unassigned; isomer 1) [Compound 129, 2-(6,7-dihydro-5H-pyrrolo[1,2-c]imidazol-1-yl)-2-[6-[4-[2-[2-[4-[3-(2,4-dioxohexahydropyrimidin-1-yl)-5-fluoro-1-methyl-indazol-6-yl]-3,3-difluoro-1-piperidyl]acetyl]-2,6-diazaspiro[3.3]heptan-6-yl]phenyl]-4-fluoro-1-oxo-isoindolin-2-yl]-N-thiazol-2-yl-acetamide, isomer 1] it was under 50 nM. Take `Cn1nc(N2CCC(=O)NC2=O)c2ccc(C3CCN(CC(=O)N4CCC5(C4)CN(c4ccc(-c6cc(F)c7c(c6)C(=O)N(C(C(=O)Nc6nccs6)c6ncn8c6CCC8)C7)cc4)C5)CC3(F)F)cc21` (centres unmarked) [Compound 113, 2-(6,7-dihydro-5H-pyrrolo[1,2-c]imidazol-1-yl)-2-(6-(4-(6-(2-(4-(3-(2,4-dioxotetrahydropyrimidin-1(2H)-yl)-1-methyl-1H-indazol-6-yl)-3,3-difluoropiperidin-1-yl)acetyl)-2,6-diazaspiro[3.4]octan-2-yl)phenyl)-4-fluoro-1-oxoisoindolin-2-yl)-N-(thiazol-2-yl)acetamide]: the 50% degradation concentration (DC50) is under 50 nM. For the compound `O=C1CCC(Nc2ccc(N3CCC(O)(CC(=O)N4CC5(CCN(c6ccc(-c7cc(F)c8c(c7)C(=O)N(C(C(=O)Nc7nccs7)c7ncn9c7CCC9)C8)cc6)CC5)C4)CC3)c(Cl)c2)C(=O)N1` (single isomer, unassigned; isomer 1) [Compound 128, 2-[6-[4-[2-[2-[1-[2-chloro-4-[[2,6-dioxo-3-piperidyl]amino]phenyl]-4-hydroxy-4-piperidyl]acetyl]-2,7-diazaspiro[3.5]nonan-7-yl]phenyl]-4-fluoro-1-oxo-isoindolin-2-yl]-2-(6,7-dihydro-5H-pyrrolo[1,2-c]imidazol-1-yl)-N-thiazol-2-yl-acetamide, isomer 1], the DC50 was under 50 nM. Regarding `O=C1CCC(Nc2ccc(CC(=O)N3CCC(NC(=O)c4ccc(C#Cc5cc(F)c6c(c5)C(=O)N(C(C(=O)Nc5nccs5)c5ncn7c5CCC7)C6)cn4)CC3)cc2)C(=O)N1` (centres unmarked) [Compound 93, 5-[2-[2-[1-(6,7-dihydro-5H-pyrrolo[1,2-c]imidazol-1-yl)-2-oxo-2-(thiazol-2-ylamino)ethyl]-7-fluoro-3-oxo-isoindolin-5-yl]ethynyl]-N-[1-[2-[4-[(2,6-dioxo-3-piperidyl)amino]phenyl]acetyl]-4-piperidyl]pyridine-2-carboxamide], the DC50 was under 50 nM. Still for that read-out and setting: next, `Cn1nc(N2CCC(=O)NC2=O)c2ccc([C@H]3CCN(C(=O)CN4CCC5(CC4)CN(c4ccc(-c6cc(F)c7c(c6)C(=O)N(C(C(=O)Nc6nccs6)c6ncn8c6CCC8)C7)cc4)C5)CC3(F)F)cc21` (stereo partly drawn) [Compound 140, 2-(6,7-dihydro-5H-pyrrolo[1,2-c]imidazol-1-yl)-2-[6-[4-[7-[2-[(4R)-4-[3-(2,4-dioxohexahydropyrimidin-1-yl)-1-methyl-indazol-6-yl]-3,3-difluoro-1-piperidyl]-2-oxo-ethyl]-2,7-diazaspiro[3.5]nonan-2-yl]phenyl]-4-fluoro-1-oxo-isoindolin-2-yl]-N-thiazol-2-yl-acetamide]: under 50 nM.

Take `O=C1CC[C@H](Nc2ccc(N3CCC(O)(CC(=O)N4CCC5(CC4)CN(c4ccc(-c6cc(F)c7cn(C(C(=O)Nc8nccs8)c8ncn9c8CCC9)nc7c6)cc4)C5)CC3)c(F)c2)C(=O)N1` (stereo partly drawn) [Compound 79, 2-(6,7-dihydro-5H-pyrrolo[1,2-c]imidazol-1-yl)-2-(6-(4-(7-(2-(1-(4-(((S)-2,6-dioxopiperidin-3-yl)amino)-2-fluorophenyl)-4-hydroxypiperidin-4-yl)acetyl)-2,7-diazaspiro[3.5]nonan-2-yl)phenyl)-4-fluoro-2H-indazol-2-yl)-N-(thiazol-2-yl)acetamide]: the half-maximal degradation concentration (DC50) was under 50 nM. For the compound `O=C1CCN(c2ccc(N3CCC(O)(CC(=O)N4CC5(CCN(c6ccc(-c7cc(F)c8c(c7)C(=O)N(C(C(=O)Nc7nccs7)c7ncn9c7CCC9)C8)cc6)CC5)C4)CC3)c(F)c2)C(=O)N1` (centres unmarked) [Compound 163, 2-(6,7-dihydro-5H-pyrrolo[1,2-c]imidazol-1-yl)-2-[6-[4-[2-[2-[1-[4-(2,4-dioxohexahydropyrimidin-1-yl)-2-fluoro-phenyl]-4-hydroxy-4-piperidyl]acetyl]-2,7-diazaspiro[3.5]nonan-7-yl]phenyl]-4-fluoro-1-oxo-isoindolin-2-yl]-N-thiazol-2-yl-acetamide], the half-maximal degradation concentration (DC50) was under 50 nM.
